From PMC10636026, “Coordinated regulation of the entry and exit steps of aromatic amino acid biosynthesis supports the dual lignin pathway in grasses” (Nature Communications, 2023)
Each block holds one compound with its values, some of them ahead of it.

What was measured:
Type in all cases: biochemical
[1] = molecular target: T1, BdTyrA2 (arogenate dehydrogenase) (Brachypodium distachyon, UniProt I1GWX1); assay: recombinant purified enzyme, arogenate dehydrogenase assay (NADPH at […] nm); Ki calculated from IC50 and Km; conditions: read-out: Ki / (μM tyrosine)
T1 construct: gene LOC100833753; without the predicted plastid transit peptide, poly-histidine tag
T1 sequence (I1GWX1 56-365): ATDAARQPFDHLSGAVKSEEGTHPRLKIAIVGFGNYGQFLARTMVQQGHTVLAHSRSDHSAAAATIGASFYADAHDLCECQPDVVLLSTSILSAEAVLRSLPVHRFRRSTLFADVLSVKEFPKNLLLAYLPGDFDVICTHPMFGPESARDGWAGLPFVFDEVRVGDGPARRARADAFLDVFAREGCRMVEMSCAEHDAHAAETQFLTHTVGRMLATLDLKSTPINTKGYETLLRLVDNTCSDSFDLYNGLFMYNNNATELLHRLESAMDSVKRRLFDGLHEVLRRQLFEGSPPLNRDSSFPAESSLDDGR

[2] = molecular target: T2, BdTyrAnc (non-canonical arogenate dehydrogenase) (Brachypodium distachyon, UniProt I1GYB3); assay: as above; conditions: read-out: Ki / (μM tyrosine)
T2 construct: gene LOC100829970; without the predicted plastid transit peptide, poly-histidine tag
T2 sequence (I1GYB3 51-361): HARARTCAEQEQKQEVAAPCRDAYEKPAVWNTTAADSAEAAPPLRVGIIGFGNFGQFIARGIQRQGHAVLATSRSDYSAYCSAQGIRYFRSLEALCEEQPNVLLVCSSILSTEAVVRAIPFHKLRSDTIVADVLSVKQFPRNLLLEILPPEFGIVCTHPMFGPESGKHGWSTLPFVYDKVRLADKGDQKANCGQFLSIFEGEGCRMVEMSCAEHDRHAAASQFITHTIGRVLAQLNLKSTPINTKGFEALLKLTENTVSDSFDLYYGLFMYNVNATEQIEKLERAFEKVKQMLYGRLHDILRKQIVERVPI

[3] = molecular target: T3, BdDHS2 (3-deoxy-D-arabino-heptulosonate 7-phosphate synthase) (Brachypodium distachyon, UniProt I1I809); assay: recombinant purified enzyme, DHS activity (PEP consumption at […] nm); conditions: read-out: IC50 / (μM Agn)
T3 construct: gene LOC100821423; without the predicted plastid transit peptide

[4] = molecular target: T2, BdTyrAnc (non-canonical arogenate dehydrogenase); assay: Michaelis-Menten kinetics of recombinant purified enzyme (Km)
[5] = molecular target: T4, BdDHS1a (3-deoxy-D-arabino-heptulosonate 7-phosphate synthase) (Brachypodium distachyon, UniProt I1GSB3); assay: recombinant purified enzyme, DHS activity (PEP consumption at […] nm); conditions: read-out: IC50 / (μM Agn)
T4 construct: gene LOC100823133; without the predicted plastid transit peptide

[6] = molecular target: T3, BdDHS2 (3-deoxy-D-arabino-heptulosonate 7-phosphate synthase); assay: recombinant purified enzyme, DHS activity assay; conditions: read-out: IC50 / (μM Trp)

T3 sequence (I1I809 51-503): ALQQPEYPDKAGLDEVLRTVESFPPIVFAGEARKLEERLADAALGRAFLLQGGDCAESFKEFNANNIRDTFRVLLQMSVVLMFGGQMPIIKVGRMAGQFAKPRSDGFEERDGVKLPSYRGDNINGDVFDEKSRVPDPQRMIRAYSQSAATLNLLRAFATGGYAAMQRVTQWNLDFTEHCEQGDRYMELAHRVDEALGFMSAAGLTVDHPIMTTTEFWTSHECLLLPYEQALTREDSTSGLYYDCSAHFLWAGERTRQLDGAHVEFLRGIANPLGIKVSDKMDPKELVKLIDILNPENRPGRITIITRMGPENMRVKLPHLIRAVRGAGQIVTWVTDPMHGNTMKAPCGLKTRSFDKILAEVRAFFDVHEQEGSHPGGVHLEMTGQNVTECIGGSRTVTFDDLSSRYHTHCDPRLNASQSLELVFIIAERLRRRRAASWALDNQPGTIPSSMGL
T4 sequence (I1GSB3 46-537): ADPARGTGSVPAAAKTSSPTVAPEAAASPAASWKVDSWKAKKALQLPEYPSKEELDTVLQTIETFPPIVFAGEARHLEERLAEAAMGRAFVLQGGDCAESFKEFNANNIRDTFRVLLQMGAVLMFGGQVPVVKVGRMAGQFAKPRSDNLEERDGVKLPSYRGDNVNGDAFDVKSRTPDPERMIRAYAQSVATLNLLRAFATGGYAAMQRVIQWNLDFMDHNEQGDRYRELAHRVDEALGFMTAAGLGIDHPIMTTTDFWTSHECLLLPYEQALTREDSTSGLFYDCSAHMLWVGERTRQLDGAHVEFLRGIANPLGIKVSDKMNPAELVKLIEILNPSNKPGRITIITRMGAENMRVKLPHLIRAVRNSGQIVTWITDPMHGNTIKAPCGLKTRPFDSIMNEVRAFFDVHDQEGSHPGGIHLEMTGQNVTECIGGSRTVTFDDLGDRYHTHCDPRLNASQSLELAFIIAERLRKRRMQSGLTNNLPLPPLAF

SMILES: N[C@@H](Cc1ccc(O)cc1)C(=O)O [tyrosine]
Ki [1]: 8 ± 2 µM
Ki [2]: 64 ± 25 µM

IC50 [3]: 91 ± 11 µM
Km [4]: 0.13 ± 0.04 mM
IC50 [5]: 285 ± 24 µM
SMILES: N[C@@H](C[C@]1(C(=O)O)C=C[C@@H](O)C=C1)C(=O)O [arogenate]

IC50 [6]: 120 ± 4 µM
SMILES: N[C@@H](Cc1c[nH]c2ccccc12)C(=O)O [tryptophan]
